In brackets after ≈: the same amount, converted by molar mass. Several values for one entry are separate records, joined by “and”; a condition that tells them apart may be missing. Equal entries are not always repeated. Where two headings read alike, the source gives them in different places.
Key:
[1] = test system: Staphylococcus saprophyticus; assay: MIC by CLSI broth microdilution, Example 1 Method 1; assay type: cell-based
Experimental: Unless otherwise stated, the Clinical and Laboratory Standards Institute (CLSI) recommended procedure is as set out in the edition of CLSI Approved Standard […]. Methods for Dilution Antimicrobial Susceptibility Tests for Bacteria That Grow Aerobically” at the time of testing. Antimicrobial activity was determined by broth microdilution using the CLSI recommended procedure. Gepotidacin was tested in serial two-fold dilutions and the minimum inhibitory concentration (MIC) was determined as the lowest concentration of the compound that inhibited visible growth. Gepotidacin was tested against 28 strains of Staphylococcus saprophyticus collected from multiple hospitals. Amoxicillin, azithromycin, levofloxacin and cefuroxime were included as comparators. MICs for gepotidacin and comparators were determined by broth microdilution according to CLSI methods.

Prevotella spp. = assay: MIC by CLSI agar dilution, Example 6 second study; assay type: cell-based; details: 1 isolate
Description: (§1) A second study tested gepotidacin by CLSI agar dilution against gram-positive and gram-negative anaerobic bacterial isolates from the GlaxoSmithKline Upper Providence culture collection. Amoxicillin, azithromycin, levofloxacin, and cefuroxime were included as comparators.

Peptostreptococcus spp. = assay: MIC by CLSI agar dilution, Example 6 second study; assay type: cell-based; details: 4 isolates
Description: as §1

Clostridium bifermentans = assay: MIC by CLSI agar dilution, Example 6 second study; assay type: cell-based; details: Paraclostridium bifermentans; 1 isolate
Description: as §1

Fusobacterium spp. = assay: MIC by CLSI agar dilution, Example 6 second study; assay type: cell-based; details: 3 isolates
Description: as §1

E. coli [2] = assay: Gepotidacin MIC90 for common uUTI pathogens (stated in conclusions); assay type: cell-based; details: Escherichia coli
Acidovorax temperans = assay: MIC by CLSI broth microdilution, isolates from UTI patients (Example 7); assay type: cell-based; details: n=1
Experimental: (§2) Gepotidacin was tested against the following organisms obtained from UTI patients, in serial two-fold dilutions. The minimum inhibitory concentration (MIC) was determined by broth microdilution according to CLSI methods.

Citrobacter amalonaticus = assay: as above; assay type: cell-based; details: n=1
Experimental: as §2

[3] = Plasma and urine pharmacokinetics, phase IIa study in women with acute uUTI; assay type: in vivo, human; details: for Cmax: read-out: Plasma Cmax, Geometric Mean (% CVb); for AUC: po, uUTI patients, read-out: urine AUC[0-tau]
Experimental: (§3) Bronchoalveolar lavage samples were collected to determine gepotidacin exposures in ELF and AM following a single 1000 mg IV infusion over 2 hours to healthy subjects. Saliva exposure was assessed in healthy volunteers following 1500 mg oral single dose. Gepotidacin exposures in urine was assessed in women with acute uUTI following 1500 mg BID oral doses for 5 days.
(§4) This phase IIa single center study evaluated the safety, tolerability, pharmacokinetics, and efficacy of oral gepotidacin 1500 mg BID for 5 days in female subjects with acute cystitis. Clean catch mid-stream urine specimens were obtained for quantitative culture by standard methods. Urine samples were taken from all participants pre-treatment (baseline) and at all post-baseline visits. All urine samples were sent to a central laboratory (PPD Global Clinical Laboratories, Highland Heights, Ky., USA) for Gram stain, quantitative culture, pathogen identification and susceptibility testing. See FIG. 1 for participant disposition and study outline.
Serial blood and urine PK sampling were performed for the first dose of study treatment on Day 1 and for the time-matched dose on Day 4. Participants took all doses of gepotidacin with food and remained in the clinic to complete a total of 10 doses. Participants were instructed to return for the TOC (Day 10 to 13) and Follow-up (Day 28±3) Visits.
(§5) For pharmacokinetic assessments, serial blood and urine samples for the assessment of gepotidacin PK concentrations were collected out to 12 hours post dose (T) following the morning dose on Days 1 and 4. CT (trough) concentrations were collected on Days 1-5. PK concentrations of gepotidacin in plasma and urine were measured using a validated LC-MS/MS bio-analytical assay.

S. saprophyticus [4] = assay: Phase IIa PK/PD and microbiological response by uropathogen; assay type: in vivo, human; details: Participant 8
Experimental: as §4
(§6) Susceptibility testing by CLSI broth microdilution and gradient diffusion (fosfomycin only) was conducted (CLSI, 2015, Methods for dilution antimicrobial susceptibility tests for bacteria that grow aerobically; approved standard-tenth edition; and CLSI, 2018. Performance Standards for Antimicrobial Susceptibility Testing; Twenty-seventh Informational Supplement M100-S28). Inclusion in the microbiological intent-to-treat population (micro-ITT), required growth of a qualifying baseline uropathogen (≥10^5 CFU/mL). See FIG. 2 for the baseline algorithm.
as §5

E. coli [5] = assay: as above; assay type: in vivo, human
Experimental: as §4, §6, §5

K. pneumoniae = assay: as above; assay type: in vivo, human; details: Participant 7
Experimental: as §4, §6, §5

C. koseri = assay: as above; assay type: in vivo, human; details: Participant 1
Experimental: as §4, §6, §5

S. saprophyticus [6] = assay: Phase IIa baseline uropathogen susceptibility testing (CLSI broth microdilution); assay type: cell-based; details: Staphylococcus saprophyticus; Participant 8; read-out: GEP MIC
Experimental: as §4, §6

qualifying uropathogens = assay: as above; assay type: cell-based; details: 8 qualifying baseline uropathogens
Experimental: as §4, §6

[7] = Exposure in epithelial lining fluid (ELF) and alveolar macrophages (AM), healthy subjects; assay type: in vivo; details: human, single 1000 mg IV infusion over 2 hours
Experimental: (§7) Antibiotic target site exposures play a key role as suboptimal levels may lead to therapeutic failure and resistance. Across multiple clinical studies, exposures to gepotidacin were assessed in plasma and other matrices, such as urine, saliva, epithelial lining fluid (ELF) and Alveolar Macrophages (AM).
as §3

[8] = Saliva exposure, healthy volunteers; assay type: in vivo, human; details: 1500 mg oral single dose
Experimental: as §7, §3

Molecule `O=c1ccc2ncc(=O)n3c2n1C[C@H]3CN1CCC(NCc2cc3c(cn2)OCCC3)CC1` [gepotidacin, (2R)-2-({4-[(3,4-dihydro-2H-pyrano[2,3-c]pyridin-6-ylmethyl)amino]-1-piperidinyl}methyl)-1,2-dihydro-3H,8H-2a,5,8a-triazaacenaphthylene-3,8-dione] has an MIC90 ([1]; 28 isolates) of 0.125 µg/mL (≈ 0.279 µM), an MIC90 ([1]; conclusion to Methods 1 and 2) of 0.12 µg/mL (≈ 0.268 µM) and an MIC (Prevotella spp.) of 4 µg/mL (≈ 8.92 µM). The MIC (Peptostreptococcus spp.) was 0.12 to 2 µg/mL (≈ 0.268 to 4.46 µM), the MIC (Clostridium bifermentans) was 0.06 µg/mL (≈ 0.134 µM) and the MIC (Fusobacterium spp.) was 0.12 to 1 µg/mL (≈ 0.268 to 2.23 µM). It also gave an MIC90 (E. coli [2]) of 4 µg/mL (≈ 8.92 µM), an MIC (Acidovorax temperans) of 1 µg/mL (≈ 2.23 µM) and an MIC (Citrobacter amalonaticus) of 2 µg/mL (≈ 4.46 µM). For the same molecule, the “accumulation in plasma following BID dosing (based on AUC)” value ([3]; 1500 mg BID oral) was 1.4 fold, the “dose excreted in urine over the 12-hour dosing interval” value ([3]; Day 1) was “Approximately 20%” and the “Plasma CT, Geometric Mean (% CVb)” value ([3]; Day 4) was 0.851 (41.1) [n = 21] μg/mL. The “Urine CT, Geometric Mean (% CVb)” value ([3]; Day 4) was 327 (248.7) [n = 21] μg/mL, the “dose excreted in urine over the 12-hour dosing interval” value ([3]; Day 4) was 31% and the “Steady state attained by” value ([3]; based on trough plasma concentrations) was at most 3 days. It also gave a concentration at 12 h ([3]; female, human, in vivo, over the 12-hour dosing interval, 1500 mg BID oral, read-out: minimum / steady-state trough urine concentrations (remained above a MIC of)) of over 4000 ng/mL, an AUC(0-t) ([3]; female, human, plasma, oral, 1500 mg, Day 1, read-out: Plasma AUC(0-T), Geometric Mean (% CVb)) of 20.2 µg·h/mL and a Cmax ([3]; female, human, plasma, oral, 1500 mg, Day 1) of 5890 ng/mL. For the same molecule, the AUC(0-t) ([3]; female, human, plasma, oral, 1500 mg, Day 4, read-out: Plasma AUC(0-T), Geometric Mean (% CVb)) was 29.3 µg·h/mL, the Cmax ([3]; female, human, plasma, oral, 1500 mg, Day 4) was 8440 ng/mL and the Tmax ([3]; female, human, plasma, oral, 1500 mg, plasma, Day 1, read-out: median Tmax) was 1.5 h. The Tmax ([3]; female, human, plasma, oral, 1500 mg, plasma, Day 4, read-out: median Tmax) was 1.92 h, the Tmax ([3]; female, human, plasma, oral, 1500 mg, plasma, Days 1 and 4, read-out: median Tmax values) was 1.5 to 1.92 h and the half-life ([3]; female, human, plasma, oral, 1500 mg, read-out: effective elimination half-life (converted)) was 6.6 h. For the same molecule, the AUC(0-t) ([3]; female, human, urine, oral, 1500 mg, Day 1, read-out: Urine AUC(0-T), Geometric Mean (% CVb)) was 3740 µg·h/mL, the AUC(0-t) ([3]; female, human, urine, oral, 1500 mg, Day 4, read-out: Urine AUC(0-T), Geometric Mean (% CVb)) was 5970 µg·h/mL and the AUC(0-t) ([3]; female, human, urine, oral, 1500 mg, steady state, Day 4, read-out: Urinary AUC(0-24)) was 11900 µg·h/mL. The Kp ([3]; female, human, urine, oral, 1500 mg, read-out: Steady-state urine exposures (AUC[0-24]) exceeded free plasma exposures by) was about 300, the AUC ([3]; female, human, urine, 1500 mg, Day 1, 1500 mg BID oral) was 3740 µg·h/mL and the AUC ([3]; female, human, urine, 1500 mg, Day 4, 1500 mg BID oral) was 5970 µg·h/mL. For the same molecule, the “Urine Ctau” value ([3]; from Day 3 onwards, 1500 mg BID oral) was 322 to 352 µg/mL, the renal excretion ([3]; healthy subjects (comparison)) was 7.5 % of dose and the “free plasma AUC(0-24)” value ([3]; steady state, Day 4) was 39.4 µg·h/mL and 39.3 µg·h/mL. The renal excretion ([3]; uUTI participants) was 20 % of dose, the “Microbiological success at Follow-up” value (S. saprophyticus [4]) was “Success” and the “Microbiological success at TOC” value (S. saprophyticus [4]) was “Success”. For the same molecule, the “Microbiological success at Follow-up” value (E. coli [5]; Participant 2) was “Success”, the “Microbiological success at TOC” value (E. coli [5]; Participant 2) was “Success” and the “Microbiological success at Follow-up” value (E. coli [5]; Participant 3) was “Success”. For the same molecule, the “Microbiological success at TOC” value (E. coli [5]; Participant 3) was “Success”, the “Microbiological success at Follow-up” value (E. coli [5]; Participant 4) was “Success” and the “Microbiological success at TOC” value (E. coli [5]; Participant 4) was “Success”. For the same molecule, the “Microbiological success at TOC” value (E. coli [5]; Participant 5, failure due to an out of stability urine specimen) was “Failure^b”, the “Microbiological success at Follow-up” value (E. coli [5]; Participant 5, failures at TOC considered failures at Follow-up) was “Failure^c” and the “Microbiological success at Follow-up” value (E. coli [5]; Participant 6, MDR) was “Success”. The “Microbiological success at TOC” value (E. coli [5]; Participant 6, MDR) was “Success”, the “Microbiological success at Follow-up” value (K. pneumoniae) was “Success” and the “Microbiological success at TOC” value (K. pneumoniae) was “microbiological success”. For the same molecule, the “Microbiological success at TOC” value (K. pneumoniae; listed as GEP) was “Success”, the “Microbiological success at Follow-up” value (C. koseri) was “Failure” and the “Microbiological success at TOC” value (C. koseri) was “Success”. The MIC (S. saprophyticus [6]) was 0.06 µg/mL (≈ 0.134 µM), the “Gepotidacin MICs ranged” value (qualifying uropathogens) was 0.06 to 4 µg/mL and the Kp ([7]; alveolar macrophages, read-out: AM AUC(0-12) ratio to unbound plasma) was 178. For the same molecule, the Kp ([7]; epithelial lining fluid, read-out: ELF AUC(0-12) ratio to unbound plasma) was 1.84 and the “ratio of saliva AUC to unbound plasma AUC” value [8] was “close to unity”.

Source: US20220184071A1, “GEPOTIDACIN FOR USE IN THE TREATMENT OF BACTERIAL URINARY TRACT INFECTIONS” (GlaxoSmithKline Intellectual Property Development Limited, priority 2019, published 2022)
